Measured values taken from patent US11130762B2, “Azaaryl derivative, preparation method therefor, and application thereof for use in pharmacy” (Abbisko Therapeutics Co., Ltd., priority 2017, dated 2021).

Legend:
[1] = test system: NCI-H1703 human non-small cell lung squamous carcinoma cells; experiment: Cell proliferation (Cell Titer Glo), NCI-H1703 cells (PDGFRA); assay type: cell-based; conditions: 72 h, 3 days, CTG, * = average of multiple tests, read-out: Cytological experiment PDGFRA IC50
Experimental: (§1) D. CSF-1R-Related Cell Proliferation Experiment
(§2) Functional effects of compounds on the proliferation of several cell lines were evaluated by Cell Titer Glo (CTG) studies in the present invention, and effects of the compounds on the proliferation of different cells were evaluated to determine the selectivity degree of the compounds. In the experiment, M-07e human cytomegalic leukemia cells (cat. No. CBP60791) from Nanjing Kebai Biotechnology Co., Ltd. were cultured in an incubator under conditions of RPMI1640 (Gibco, cat. No. 11875-119), 20% fetal bovine serum (Gibco, 10099-141), human 10 ng/mL GM-CSF granulocyte macrophage colony-stimulating factors (R&D, cat. No. 215-GM-010), 37° C., and 5% CO2; and Kasumi-1 human acute myeloblastic leukemia cells (cat. No. CBP60524) were cultured in an incubator under conditions of RPMI1640 (Gibco, cat. No. 11875-119), 20% fetal bovine serum (Gibco, 10099-141), 37° C., and 5% CO2: NCI-H1703 human non-small cell lung squamous carcinoma cells (cat. No. CBP60115) were cultured in an incubator under conditions of RPMI1640 (Gibco, cat. No. 11875-119), 10% fetal bovine serum (Gibco, 10099-141), 37° C., and 5% CO2; MV-4-11 human acute monocytic leukemia cells (cat. No. CBP60522) were cultured in an incubator under conditions of IMDM (Invitrogen, cat. No. 12440053), 20% fetal bovine serum (Gibco, 10099-141), 37° C., and 5% CO2. Since ATP is an index for viable cell metabolism, CTG (Promega, #G7573) reagent is a homogeneous detection method for detecting the number of viable cells in the culture by quantifying ATP. Therefore, compound-mediated inhibition for cell proliferation/survival was evaluated by quantifying ATP content in cells, and the specific experimental process was as follows.
II) NCI-H1703 Human Non-Small Cell Lung Squamous Carcinoma Cell
1. The cells were inoculated into a tissue-culture-medium-treated 96-well plate (Costar #3904) with 5000 cells/well/90 μL fresh culture medium, and cultured for 24 hrs;
2. the next day, 10 μL of culture medium containing testing compound with 10-fold of final concentration was added to each well:
(§3) 3. the dosage effect was evaluated by testing 3-fold serial dilutions of the compound, which started from 18 μM;
4. after the cells were incubated for 3 days at 37° C. and 5% CO2, the inhibition on cell survival was quantified after 50 μL of CTG was added and the luminescence assay was performed:
(§4) 5. the compound concentration leading to half maximal inhibitory (IC50) and the compound concentration leading to absolute half maximal inhibitory (Absolute IC50) were measured by a plate reader (M1000, Tecan) and a four-parameter curve fit in Graphpad Prism 7.

[2] = test system: MV-4-11 human acute monocytic leukemia cells; experiment: Cell proliferation (Cell Titer Glo), MV-4-11 cells (FLT3); assay type: cell-based; conditions: MV4-11, 72 h, 3 days, CTG, * = average of multiple tests, read-out: Cytological experiment FLT3 IC50
Experimental: as §1, §2
III) MV-4-11 Human Acute Monocytic Leukemia Cell
1. The cells were inoculated into a tissue-culture-medium-treated 96-well plate (Costar #3904) with 5000 cells/well/90 μL fresh culture medium, and cultured for 24 hrs:
2. the next day, 10 μL of culture medium containing testing compound with 10-fold of final concentration was added to each well;
as §3
4. after the cells were incubated for 3 days at 37° C. and 5% CO2, the inhibition on cell survival was quantified after 50 μL of CTG was added and the luminescence assay was performed;
as §4

CSF-1R = CSF-1R (Homo sapiens, UniProt P07333); experiment: CSF-1R in vitro biochemical kinase study (ADP-Glo assay); conditions: 500 μM ATP, * = average of multiple tests, read-out: Enzymatic experiment CSF1R IC50
Sequence of CSF-1R (P07333 20-972): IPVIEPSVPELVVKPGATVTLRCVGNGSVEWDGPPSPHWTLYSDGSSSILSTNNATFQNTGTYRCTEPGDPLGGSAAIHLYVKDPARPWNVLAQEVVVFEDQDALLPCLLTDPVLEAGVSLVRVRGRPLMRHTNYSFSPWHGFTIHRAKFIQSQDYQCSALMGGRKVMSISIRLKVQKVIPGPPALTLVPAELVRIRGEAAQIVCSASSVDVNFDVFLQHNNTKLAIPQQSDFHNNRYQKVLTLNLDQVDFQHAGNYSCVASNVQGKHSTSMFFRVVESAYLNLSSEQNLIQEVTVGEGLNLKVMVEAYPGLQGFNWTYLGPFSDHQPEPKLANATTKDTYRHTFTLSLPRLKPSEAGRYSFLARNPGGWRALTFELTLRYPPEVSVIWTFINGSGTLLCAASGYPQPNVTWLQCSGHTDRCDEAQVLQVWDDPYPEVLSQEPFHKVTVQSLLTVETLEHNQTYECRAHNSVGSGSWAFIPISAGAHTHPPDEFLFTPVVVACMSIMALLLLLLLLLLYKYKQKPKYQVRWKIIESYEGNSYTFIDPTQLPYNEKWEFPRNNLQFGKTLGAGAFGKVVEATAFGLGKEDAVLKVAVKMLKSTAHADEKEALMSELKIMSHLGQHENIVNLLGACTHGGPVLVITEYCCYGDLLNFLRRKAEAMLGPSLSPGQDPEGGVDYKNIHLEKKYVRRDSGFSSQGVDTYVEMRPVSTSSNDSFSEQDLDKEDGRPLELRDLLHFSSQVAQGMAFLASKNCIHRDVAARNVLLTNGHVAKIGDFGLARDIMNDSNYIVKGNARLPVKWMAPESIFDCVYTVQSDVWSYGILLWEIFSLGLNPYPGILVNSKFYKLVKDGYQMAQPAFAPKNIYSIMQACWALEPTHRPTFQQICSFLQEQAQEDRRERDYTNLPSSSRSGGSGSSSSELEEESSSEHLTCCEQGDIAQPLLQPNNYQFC
Experimental: A. CSF-1R In Vitro Biochemical Kinase Study
In the present invention, the inhibitory activity of compounds against the CSF-1R activity was determined by using CSF-1R ADP-Glo assay. The compound-mediated inhibition effect was achieved by inhibiting the production of ADP from consumption of ATP, and the activities of compounds were evaluated by using the ADP-Glo kit (Promega, cat. No. V9101). The specific experimental process was as follows:
1. The kinase reaction performed in the present invention was carried out in a 384-well plate (Perkinelmer, cat. No. 6007290), 3.95 nM of CSF-1R, 500 μM of ATP, and 0.2 mg/mL of polypeptide (Poly (Glu4, Try1), Sigma, cat. No. P0275) were respectively weighed and added to each well:
2. following reagents were then added to each well to reach the final reaction system: 40 mM Tris, pH 7.5, 20 mM MgCl2, 0.01% Triton X-100, 0.1 mg/mL BSA, 2.5 mM DTT, and 0.1% DMSO;
3. the reaction was conducted at 30° C. for 60 min;
4. then an equal volume of stop solution (ADP-Glo) was added to the kinase reaction system;
5. the mixed solution was incubated at 25° C. for 60 min, and the kinase reaction was then terminated;
6. a two-fold volume of detection reagent was then added to each well;
7. the mixed solution was incubated at 25° C. for 30 min;
8. the compound IC50 value was measured by using a plate reader (Tecan, M1000) and a four-parameter curve was generated in Graphpad Prism.

| IC50 [1] | IC50 [2] | IC50 (CSF-1R) | Structure (SMILES) |
| --- | --- | --- | --- |
| > 2 µM | 1810 nM | 90.7 nM | CCN1CCCn2c1ncc(-c1ccc(Oc3ccnc(-c4cnn(C)c4)c3)c(C)n1)c2=O [Example 4] |
| > 18 µM | > 6000 nM | 73.7 nM | Cc1nc(-c2cnc3n(c2=O)CCCN3C)ccc1Oc1ccnc(-c2cnn(C)c2)c1 [Example 1, 9-methyl-3-(6-methyl-5-((2-(1-methyl-1H-pyrazol-4-yl)pyridin-4-yl)oxy)pyridin-2-yl)-6,7,8,9-tetrahydro-4H-pyrimido[1,2-a]pyrimidin-4-one] |
